“Also recorded” adds a separate entry of the source. Non-standard residues stand in square brackets, D forms with d. Residues, ends and D or L forms follow the SMILES beside them. dGly(5-dibenzosuberyl) = N[C@@H](C(=O)O)C1c2ccccc2CCc2ccccc21
How the values were obtained:
[1] = test system: ET-1 stimulated astrocytes; assay: Real-time PCR of APOE/TAU mRNA in ET-1 stimulated astrocytes; type: cell-based, murine; settings: ET-1 (100 nM) 24 hr; PD145065 (1 μM) added 2 hrs prior to ET-1; FIG. 12
Description: FIG. 12: Expression level of APOE and TAU expression level in control astrocytes and astrocytes treated with BQ123 plus […] or PD145065. Treatment groups were as follows: Control, ET-1 (100 nM), ET-1+BQ123/BQ788 (1 μM), ET-1+PD145065 (1 μM). Cells were treated with ET-1 for 24 hr. BQ123, BQ788 or PD145065 was added 2 hrs prior to ET-1 stimulation.
(§1) To determine whether ETs upregulation in astrocytes culture with tumor cells, we performed in vitro coculture experiments. Astrocytes and NIH 3T3 fibroblasts were transfected with green fluorescent protein (GFP) genes. […] RT-PCR was performed using TaqMan® Universal PCR MasterMix and quantified with an ABI 7500 real time PCR system (Applied Biosystems, Foster City, Calif.). […] Relative mRNA expression was calculated according to the AACt method, and expressed as mean±S.D. of mRNA relative to that of control.
as §1, with “Astrocytes” for “To determine whether ETs upregulation in astrocytes culture with tumor cells, we performed in vitro coculture experiments. Astrocytes”, “method” for “method,”

MDA231 = assay: Tumor cell-astrocyte protection assay (MDA231 protection assay); type: cell-based, human; settings: FIG. 15
ETA and ETB receptors = assay: Immunohistochemistry of endothelin receptor phosphorylation (with the protection assay); type: cell-based; settings: FIG. 15
From the text: Next the inventor used the compound PD 145065, which is a dual endothelin receptor inhibitor (antagonist), in further experiments. […] PD145065 may be administered orally to mice. Based on the in vitro data, it is anticipated that PD145065 may be used to decrease TAU in the brain in vivo.

TAU [2] = assay: Mouse model of brain trauma (parenchymal wound), TAU immunofluorescent staining; type: in vivo; settings: 10 mg/kg/day i.p. for 5 days prior to wounding, continued 3 days after; brains harvested 3 days after wounding
From the text: Brain parenchymal wound was created by inserting a needle (32 G-21 G) by stereotactic injection unit. In brief, a mouse was anesthetized with Nembutal ([…]) and fixed in the stereotactic injection unit. Skin incision was made in the forehead and a hole was made in the calvaria with a 21 G needle. Injection needle was inserted into the brain parenchyma (4-mm depth) and withdrawn. Hole was blocked with bone wax and skin incision was closed with skin staples.
(§2) A mouse model of brain trauma was used to evaluate the effect of a dual endothelin receptor antagonist (PD 145065) on TAU expression after a brain trauma. A parenchyma mouse model of brain trauma was used such that mice received a stereotaxically administered wound to the brain Immunochemistry was performed on brain samples to evaluate GFAP and TAU expression.
(§3) The mice were euthanatized 1, 2, or 4 days after creating the wound in the brain parenchyma. The brains were removed, fixed in formalin and stained for GFAP or (GFAP and TAU) using immunofluorescent staining.
(§4) Mice were pretreated with PD145065 10 mg/kg/day i.p. injection for 5 days prior to brain wounding. Control mice received saline injections. Treatment continued for 3 days after wounding. The brains were harvested 3 days after wounding and immunofluorescent staining immunohistochemistry experiments were performed.

[3] = test system: endothelin receptors A and B; assay: Mouse model of brain trauma, endothelin receptor phosphorylation; type: in vivo; settings: 10 mg/kg/day i.p. for 5 days prior to wounding, continued 3 days after
GFAP = assay: Mouse model of brain trauma, GFAP staining; type: in vivo; settings: 10 mg/kg/day i.p. for 5 days prior to wounding, continued 3 days after
Description: as §2, §3, §4

TAU [4] = assay: Chronic hypoxia (hypoxia chamber) in mice, TAU immunohistochemistry; type: in vivo, mouse; settings: hypoxia chamber 1-3 days; daily i.p. injections, or pretreatment 7 days before 48 hours of hypoxia
Description: (§5) Mice were placed in a sealed plexiglass chamber with controlled input of oxygen-nitrogen gas to establish an oxygen level of 5.705% oxygen. One to 3 days later, the mice are euthanized or placed in room air (normoxia). The brains are harvested, fixed in formalin, or frozen for histology/immunohistochemistry examination. Staining for GFAP (astrocytes), TAU, endothelin receptor A or B (phosphorylation) was carried out.
Mice were placed in a hypoxia chamber for 1-3 days are taken out and divided into 2 groups: (1) treated with PD145065 (dual endothelin receptor inhibitor), or (2) saline. Treatments are by daily i.p. injections. The brains of control and treated mice are harvested 2-5 days later and processed for histological examination Immunohistochemistry for GFAP, TAU, ETAR, and ETBR (phosphorylation) was carried out.
as §5, with “The following methods were used for the chronic hypoxia (hypoxia chamber) experiments. Mice” for “Mice”, “were” for “are”, “phosphorylation” for “(phosphorylation)”, “out. […]” for “out.”

TAU [5] = assay: Mouse model of chemo-brain (paclitaxel or TMZ), TAU immunohistochemistry; type: in vivo; settings: for TAU production/expression in brain caused by the chemotherapeutic: mice bearing brain cancer (LN229 GBM) or normal mice, paclitaxel 8 mg/kg i.p. twice per week, TMZ 7.5 mg/kg p.o. daily
Description: The following methods were used to test for the in vivo effect of a dual endothelin receptor on a mouse model of chemo-brain. PD145065: SIGMA (SCP0143, 5 mg) was reconstituted in PBS containing 0.1% BSA. Temozolomide (TMZ): SIGMA (T2577-100 MG), was reconstituted in DMSO (10 mg/mL) with sonication and diluted in HBSS before treatment TAXOL (paclitaxel): Hospira (NDC 61703-342-09, 6 mg/mL) was diluted in saline before treatment. Mice were treated for 6 weeks with either TMZ (7.5 mg/kg, p.o., daily) or paclitaxel (8 mg/kg, i.p., twice per week) with or without PD145065 (10 mg/kg, i.p., daily). Treatment groups were as follows:
Mice were euthanized and the brains were collected and frozen (OCT) or placed in formalin and embedded in paraffin and then processed for IHC. Female nude mice were treated with Taxol (8 mg/kg) i.p. twice per week for six weeks. […] Female nude mice were treated orally with 7.5 mg/kg TMZ every day for six weeks.

[6] = Body weight of mice treated with paclitaxel with or without PD145065; type: in vivo, mouse
Description: Studies to evaluated prevention and/or treatment of chemo-brain by PD145065 were performed. Female athymic nude mice (NCI-nu) were used in these studies. Mice were used in these experiments in accordance with institutional guidelines when they were 14-16 weeks old. Mice were randomized as follows;
Mice showing weight loss, dehydration (poor skin tugor) or poor movement (poor oral intake, decreased ambulation, etc.) were defined as symptomatic mice.
Prevention and/or treatment of Chemo-brain by PD145065 was evaluated via the following protocol. Treatment continued for 12 weeks and treatment and prevention groups were defined as follows: […]
(1) Treatment group—mice receiving TMZ or taxol (group 3 or 4) and showing symptoms defined above for two consecutive weeks began to receive PD145065;
(3) Prevention group—mice were receiving (PD+TMZ) or (PD+taxol) for 12 weeks (group 5 or 6).

phosphorylation of ETA and ETB receptors (ETA and ETB receptors) | TAU production/expression in brain caused by the chemotherapeutic (TAU [5]) | TAU production/expression in brain caused by the chemotherapeutic (TAU [5]; listed as Taxol) | TAU production/expression in brain caused by the chemotherapeutic (TAU [5]; listed as TMZ) | SMILES | APOE/TAU mRNA expression [1] | blocking the ability of astrocytes protection of tumor cells from chemotherapy (MDA231) | TAU expression / TAU positive cells in brain after wound (TAU [2]) | phosphorylation of endothelin receptors A and B (ETAR, ETBR) in wounded brain [3] | GFAP in wounded brain (GFAP) | TAU expression in brain resulting from hypoxia (TAU [4]) | TAU expression in brain of mice treated with paclitaxel or TMZ (TAU [5]; PD145065 10 mg/kg i.p. daily, 6 weeks, TMZ 7.5 mg/kg p.o. daily or paclitaxel 8 mg/kg i.p. twice per week) | weight loss associated with paclitaxel, prevention (co-administration) ([6]; PD 10 mg/kg i.p. daily plus taxol 8 mg/kg i.p. twice per week, FIG. 23) | weight loss associated with paclitaxel, treatment group ([6]; PD145065 given to mice receiving paclitaxel beginning on day 49, FIG. 22) | body weight of paclitaxel-treated mice ([6]; paclitaxel alone, FIG. 22)
can prevent phosphorylation |  |  |  | CC[C@H](C)[C@H](NC(=O)[C@H](CC(=O)O)NC(=O)[C@H](CC(C)C)NC(=O)[C@H](NC(C)=O)C1c2ccccc2CCc2ccccc21)C(=O)N[C@H](C(=O)N[C@@H](Cc1c[nH]c2ccccc12)C(=O)O)[C@@H](C)CC [PD145065, N-Acetyl-α-[10,11-Dihydro-5H-dibenzo[a,d]cycloheptadien-5-yl]-D-Gly-Leu-Asp-Ile-Ile-Trp] (Ac-[dGly(5-dibenzosuberyl)]LDIIW-OH) | observed to have an effect | as effective as the combination of BQ123 and BQ788 | not in brains of mice pretreated; also recorded: significantly diminished or eliminated; also recorded: negative; also recorded: reduced tau expression | inhibited phosphorylation; also recorded: reduced phosphorylation or be not phosphorylated | unchanged; also recorded: contain activated (GFAP-positive) astrocytes | inhibited TAU expression; also recorded: significantly lower than in the brains of control mice; also recorded: reduced tau expression; also recorded: significant decrease in TAU expression | significantly reduced TAU expression | completely inhibit the weight loss | reversal of the weight loss | 
 | result in the production of TAU | high expression of TAU |  | CC(=O)O[C@H]1C(=O)[C@@]2(C)[C@H]([C@H](OC(=O)c3ccccc3)[C@]3(O)C[C@H](OC(=O)[C@H](O)[C@@H](NC(=O)c4ccccc4)c4ccccc4)C(C)=C1C3(C)C)[C@]1(OC(C)=O)CO[C@@H]1C[C@@H]2O [paclitaxel] |  |  |  |  |  |  |  |  |  | loss of weight
 | result in the production of TAU |  | high expression of TAU | Cn1nnc2c(C(N)=O)ncn2c1=O [temozolomide] |  |  |  |  |  |  |  |  |  | 

Reference: patent US20150182583A1, “METHODS FOR TREATMENT AND PREVENTION OF TAUOPATHIES BY INHIBITING ENDOTHELIN RECEPTORS” (Board of Regents, The University of Texas System, priority 2012, published 2015)
